Results published in patent publication US6911418B2, “Method for treating a subterranean formation” (Schlumberger Technology Corporation, priority 2001, dated 2005).

Assay: pH resulting from the aqueous mixture
Assay type: physicochemical
Conditions: 20 percent tetrasodium, 28 percent dipotassium, 21 percent diammonium mixtures
Description: Calcium carbonate was stirred into each mixture until saturation was achieved. The amount of calcium carbonate dissolution was then determined by inductively coupled plasma.

Substance: tetrasodium ethylenediamine tetraacetate
- pH of aqueous mixture: about 12
